Laboratory results: patent US20230332232A1, “COMPOSITIONS AND METHODS FOR DIAGNOSING AND TREATING A DYSTONIA” (Duke University, priority 2020, published 2023)

System: wild-type (WT) murine embryonic fibroblasts (MEFs)
Experiment: Untargeted LC/MS/MS proteomics of EVs from WT MEFs exposed 24 hours to drug, compared with untreated WT MEFs
Type: cell-based, mouse
Experimental: Methods for isolation and purification of exosomes and extracellular vesicles (EV) were extensively reviewed. Experiments were performed to arrive at a robust and reproducible protocol. The protocol used herein is that set forth in Théry et al, 2006, which is incorporated by reference for it teaching of this protocol. This protocol involves depleting serum-derived EVs from cell culture media by overnight ultracentrifugation and exchanging media for 1% FBS EV-depleted media. Media is then collected from cells following a 24-hour conditioning period and EVs are isolated by 18-hour ultracentrifugation at 100,000 g (FIG. 1A).
EVs were isolated from media of cultured murine embryonic fibroblasts (MEFs) prepared in-house according to protocols described by Xu 2005 from DYT1 knockin mice (Tor1a^delGAG/+) (Goodchild R E, et al. (2005) Neuron. 48:923-932) and littermate wild-type (WT) controls. The cultured MEFs from the DYT1 mice were exposed for 24 hours to Ritonavir (RTV) while the MEFs from WT mice were exposed to vehicle, ISRIB, or Salubrinal (SAL). The EVs isolated from these WT cells and DYT1 were characterized by untargeted proteomics and RNA-seq to identify differentially expressed proteins and RNAs as candidate biomarkers. Experimenter and Proteomics core staff were blinded to genotype of cell cultures throughout preparation and analysis phases. EV isolation was confirmed by Western immunoblot documenting presence of the exosomal marker (TSG101) and absence of the endoplasmic reticulum (ER) marker (CANX) (FIG. 1B (Cohort 1) and FIG. 1C (Cohort 2)).
Following the bicinchoninic acid assay (BCA) analysis and Western immunoblot of a portion of samples for QC, 11.6 μg-129.2 μg of EV protein lysates in RIPA buffer were sent to the Duke Proteomics and Metabolomics Shared Resource core facility for LC/MS/MS quantitative proteomic analysis. Samples were first normalized to 20 μg and spiked with undigested casein at a total of 40 fmol/μg, 80 fmol/μg, or 160 fmol/μg, then reduced with 10 mM dithiolthreitol for 30 minute at 80° C. and alkylated with 20 mM iodoacetamide for 30 minutes at room temperature. Next, the samples were supplemented with a final concentration of 1.2% phosphoric acid and 741 μL of S-Trap (Protifi) binding buffer (90% MeOH/100 mM […]). Proteins were trapped on the S-Trap, digested using 20 ng/μL sequencing grade trypsin (Promega) for 1 hour at 47° C., and eluted using 50 mM TEAB, followed by 0.2% FA, and lastly using 50% CAN/0.2% FA. All samples were then lyophilized to dryness and resuspended in 40 μL 1% TFA/2% acetonitrile containing 12.5 fmol/μL yeast alcohol dehydrogenase (ADH_YEAST). A QC Pool was created from 3 uL of each sample. All QC Pools were run periodically throughout the acquisition period.
Quantitative LC/MS/MS was performed on 2 μL of each sample, using a nanoAcquity UPLC system (Waters Corp) coupled to a Thermo Orbitrap Fusion Lumos high resolution accurate mass tandem mass spectrometer (Thermo) via a nanoelectrospray ionization source. Briefly, the sample was first trapped on a Symmetry C18 20 mm×180 μm trapping column (5 μL/min at 99.9/0.1 v/v water/acetonitrile), after which the analytical separation was performed using a 1.8 μm Acquity HSS T3 C18 75 μm×250 mm column (Waters Corp.) with a 90 minute linear gradient of 5% to 30% acetonitrile with 0.1% formic acid at a flow rate of 400 nanoliters/minute (nL/min) with a column temperature of 55° C. Data collection on the Fusion Lumos mass spectrometer was performed in a data-dependent acquisition (DDA) mode of acquisition with a r=120,000 (@ m/z 200) full MS scan from m/z 375-1500 with a target AGC value of 2e5 ions. MS/MS scans were acquired at Rapid scan rate (Ion Trap) with an AGC target of 5e3 ions and a max injection time of 100 ms. The total cycle time for MS and MS/MS scans was 2 seconds. A 20 second dynamic exclusion was employed to increase depth of coverage. The total analysis cycle time for each sample injection was approximately 2 hours. […]

Measured: ISRIB Direction Same as dE?

O=C(COc1ccc(Cl)cc1)NC1CCC(NC(=O)COc2ccc(Cl)cc2)CC1 (stereo not shown) [ISRIH]
yes: EV protein: 26S proteasome non-ATPase regulatory subunit 8 | EV protein: 60S [?] subunit biogenesis protein [?] homolog | EV protein: 116 kDa [?] small nuclear ribonucleoprotein component | EV protein: AP-3 complex subunit [?] | EV protein: ATP- binding cassette sub-family [?] member 1 | EV protein: ATP-dependent RNA helicase [?] | EV protein: Acetyl-CoA carboxylase 1 | EV protein: Acyl-protein thioesterase 2 | EV protein: Anaphase-promoting complex subunit 2 | EV protein: Anaphase-promoting complex subunit 4 | EV protein: Anaphase-promoting complex subunit 5 | EV protein: Anaphase-promoting complex subunit 7 | EV protein: Apolipoprotein M | EV protein: Cell [?] cycle protein [?] homolog | EV protein: Cell division cycle protein 27 homolog | EV protein: Coiled-coil domain-containing protein 22 | EV protein: Cullin-2 | EV protein: Cullin-5 | EV protein: Cullin-7 | EV protein: Cytosolic purine [?] -nucleotidase | EV protein: DNA [?] (r264) | EV protein: DNA [?] licensing factor MCM4 | EV protein: DNA ligase 1 | EV protein: DNA replication licensing factor MCM5 | EV protein: DNA replication licensing factor [?] | EV protein: DNA-directed RNA polymerase II subunit RPB1 | EV protein: DNA-directed RNA polymerase II subunit RPB2 | EV protein: DNA-directed RNA polymerase II subunit RPB3 | EV protein: DNA-directed RNA polymerase [?] subunit RPA2 | EV protein: DNA-directed RNA polymerases I, II, and III subunit RPABC3 | EV protein: DNA-directed RNA polymerases I, II, and III subunit [?] | EV protein: Developmentally-regulated GTP-binding protein 2 | EV protein: Double-strand-break repair protein rad21 homolog | EV protein: Dual specificity mitogen-activated protein kinase kinase 4 | EV protein: Dynactin subunit 4 | EV protein: E3 ubiquitin-protein ligase [?] | EV protein: Elongin-B | EV protein: Exosome complex exonuclease RRP44 | EV protein: Gamma-tubulin complex component 2 | EV protein: Glucose-6-phosphate 1-dehydrogenase [?] | EV protein: Glycosylated lysosomal membrane protein | EV protein: Glycylpeptide N-tetradecanoyltransferase 1 | EV protein: Golgi reassembly-stacking protein 2 | EV protein: Histone-arginine methyltransterase CARM1 | EV protein: Immunity-related GTPase family M protein 1 | EV protein: Interleukin enhancer-binding factor 3 | EV protein: Leucyl-cystinyl aminopeptidase | EV protein: Lysine-specific histone demethylase [?] | EV protein: Mediator [?] RNA polymerase II transcription subunit 23 | EV protein: Metastasis-associated protein [?] (r222) | EV protein: Metastasis-associated protein [?] (r261) | EV protein: Methyl-CpG-binding domain protein [?] | EV protein: Microtubule-associated protein [?] | EV protein: N-alpha-acetyltransferase 10 | EV protein: Nuclear [?] complex protein [?] | EV protein: Nuclear cap-binding protein subunit 1 | EV protein: NudC domain-containing protein 1 | EV protein: Phosphoribosyl pyrophosphate synthase-associated protein 1 | EV protein: Probable ubiquitin carboxyl-terminal hydrolase [?] | EV protein: Protein O-GlcNAcase | EV protein: Protein RMD5 homolog A | EV protein: Protein [?] 14 homolog | EV protein: Protein transport protein [?] | EV protein: Ran-binding protein 10 | EV protein: Ribosome biogenesis protein BOP1 | EV protein: Ribosome production factor 2 homolog | EV protein: Serine threonine-protein phosphatase 2A 56 kDa regulatory subunit gamma isoform | EV protein: Serine threonine-protein phosphatase 6 catalytic subinit | EV protein: Sorting nexin-1 | EV protein: Splicing factor 3B subunit 4 | EV protein: Structural maintenance of [?] protein 2 | EV protein: WASH complex subunit 5 | EV protein: WD repeat-containing protein [?] | EV protein: WW domain-binding protein 2 | EV protein: [?] 2 (r185) | EV protein: [?] (r186) | EV protein: [?] -1 (r187) | EV protein: [?] -1 (r232) | EV protein: [?] -conjucating enxyme [?] | EV protein: [?] -promoting complex subunit 1 | EV protein: [?] -related [?] -associated actin-dependent regulator [?] chromatin subfamily A member 5 | EV protein: [?] complex subunit 2 | EV protein: [?] kinase | EV protein: [?] repeat-containing protein 5A | EV protein: [?] small nuclear ribonucleoprotein 40 kDa protein | EV protein: [?] small nucleolar RNA-associated protein 15 homolog | EV protein: [?] ubiquitin-protein ligase [?] | EV protein: p21-activated protein kinase-interacting protein 1 | EV protein: transportin-3 | WT MEF EVs, protein: DNA replication licensing factor MCM6 | WT MEF EVs, protein: DNA-directed RNA polymerases I and III subunit RPAC1 | WT MEF EVs, protein: Protein arginine N-methyltransferase 3 | WT MEF EVs, protein: Scavenger receptor class B member 1 | WT MEF EVs, protein: Serine threonine-protein phosphatase 2A 55 kDa regulatory subunit B alpha isoform | WT MEF EVs, protein: Small nuclear ribonucleoprotein-associated protein B | WT MEF EVs, protein: WASH complex subunit 4 | WT MEF EVs, protein: WD repeat-containing protein 26
